The test system of assay [1] is PrRP-Rs mRNA in grass carp brain cells. Briefly: PrRP-Rs mRNA expression in primary brain cells. It is filed as cell-based. The following applies: E2 1 μM, 24 h.
Procedure: (§1) In brief, 13-14 grass carp brains were obtained and separated into the required brain areas including telencephalon, hypothalamus, and optic tectum, which were cut into 0.8 mm tissue fragments using […] tissue chopper (Cavey laboratory). After washing with Minimum Essential Medium (MEM, Gibco) three times, the brain fragments were incubated with 6 mg/ml trypsin (Sigma) dissolved in the medium under the conditions of 28°C, 48 rpm for 30 min. […] The brain fragments were filtered using a 30 μm filter screen and cultured into a 24-well cell culture plate under 28°C, 5% CO2 concentration. […] After another 2 days of incubation, a single-dose E2 treatment (1 μM) was performed on the cells. […] The β-actin mRNA was used as an internal parameter to eliminate random error. Therefore, genes mRNA data as well as LH release data were easily converted as a percentage of the mean value (as “% Ctrl”). The data presented (as Mean ± SEM) collected results from 4-8 parallel group experiments and analyzed with ANOVA.
Assay [2] deals with prepubertal zebrafish. Also noted: method as in PMID 22689988. Conditions: cited from earlier work.
Assay [3] deals with PrRPs, GnRH2 and GnRH3 mRNA in grass carp brain cells. The experiment in a line: PrRPs and GnRH mRNA expression in primary brain cells. Conditions: E2 1 μM, 24 h. It is filed as cell-based.
Procedure: as §1
The subject of assay [4] is GtHα mRNA in grass carp pituitary cells. Briefly: Signal transduction: GtHα mRNA expression with inhibitors in pituitary cells. Format: cell-based.
The test system of assay [5] is LHβ mRNA in grass carp pituitary cells. Briefly: Signal transduction: LHβ mRNA expression with inhibitors in pituitary cells. Format: cell-based.
Assay [6] relates to grass carp pituitary cells. The experiment in a line: Signal transduction: LH release with inhibitors in pituitary cells. Format: cell-based.
Assay [7] addresses T1, hPrRPR (Homo sapiens, UniProt P49683).
T1 construct: the full-length open reading frame (ORF) of human PrRP receptor (hPrRPR); expressed in transfected cells; host or cells: HEK-293T
T1 sequence (P49683 1-370): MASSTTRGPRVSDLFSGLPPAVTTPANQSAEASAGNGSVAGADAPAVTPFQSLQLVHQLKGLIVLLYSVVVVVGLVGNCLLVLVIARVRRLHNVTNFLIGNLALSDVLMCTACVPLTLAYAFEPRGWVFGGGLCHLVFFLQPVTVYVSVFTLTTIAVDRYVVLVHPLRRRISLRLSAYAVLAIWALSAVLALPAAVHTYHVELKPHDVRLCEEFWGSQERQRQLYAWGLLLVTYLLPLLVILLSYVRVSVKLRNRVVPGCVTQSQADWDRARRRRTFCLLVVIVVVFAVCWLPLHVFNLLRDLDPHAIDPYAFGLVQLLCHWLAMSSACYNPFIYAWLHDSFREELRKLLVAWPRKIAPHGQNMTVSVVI
Briefly: NFAT-luc reporter assay, functional expression of hPrRPR in HEK-293T cells. Format: cell-based.

The target of assay [8] is T2, PrRP-R2a (Ctenopharyngodon idella, UniProt A0A4V1HW94).
T2 sequence (A0A4V1HW94 1-370): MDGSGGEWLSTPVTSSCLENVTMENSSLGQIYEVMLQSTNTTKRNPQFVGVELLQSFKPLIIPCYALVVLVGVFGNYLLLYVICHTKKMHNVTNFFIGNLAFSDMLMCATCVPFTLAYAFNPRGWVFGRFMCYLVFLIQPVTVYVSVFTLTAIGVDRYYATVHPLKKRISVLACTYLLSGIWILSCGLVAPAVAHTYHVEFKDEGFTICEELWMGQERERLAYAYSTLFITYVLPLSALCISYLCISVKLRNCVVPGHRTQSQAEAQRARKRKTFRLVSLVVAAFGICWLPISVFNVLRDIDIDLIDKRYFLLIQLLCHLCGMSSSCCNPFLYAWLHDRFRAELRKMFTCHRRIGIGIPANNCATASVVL
The experiment in a line: cell-based. Also noted: species or system grass carp (Ctenopharyngodon idellus).

Assay [9] has as its target T3, PrRP-R1b (Ctenopharyngodon idella, UniProt A0A4P9NKE2).
T3 sequence (A0A4P9NKE2 1-377): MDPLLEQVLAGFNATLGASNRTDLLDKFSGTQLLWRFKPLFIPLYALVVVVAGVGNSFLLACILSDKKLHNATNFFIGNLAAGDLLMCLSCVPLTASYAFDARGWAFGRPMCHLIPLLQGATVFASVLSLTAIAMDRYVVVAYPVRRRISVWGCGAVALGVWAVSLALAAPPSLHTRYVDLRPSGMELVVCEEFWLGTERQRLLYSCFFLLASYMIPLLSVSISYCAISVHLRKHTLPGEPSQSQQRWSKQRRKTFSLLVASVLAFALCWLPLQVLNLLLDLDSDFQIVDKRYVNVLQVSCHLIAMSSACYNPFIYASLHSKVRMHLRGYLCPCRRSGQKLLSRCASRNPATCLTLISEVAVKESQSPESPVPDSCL
Briefly: cell-based. Further details: species or system grass carp (Ctenopharyngodon idellus).

Assay [10] addresses T4, PrRP-R1a (Ctenopharyngodon idella, UniProt A0A4P9NKE7).
T4 sequence (A0A4P9NKE7 1-371): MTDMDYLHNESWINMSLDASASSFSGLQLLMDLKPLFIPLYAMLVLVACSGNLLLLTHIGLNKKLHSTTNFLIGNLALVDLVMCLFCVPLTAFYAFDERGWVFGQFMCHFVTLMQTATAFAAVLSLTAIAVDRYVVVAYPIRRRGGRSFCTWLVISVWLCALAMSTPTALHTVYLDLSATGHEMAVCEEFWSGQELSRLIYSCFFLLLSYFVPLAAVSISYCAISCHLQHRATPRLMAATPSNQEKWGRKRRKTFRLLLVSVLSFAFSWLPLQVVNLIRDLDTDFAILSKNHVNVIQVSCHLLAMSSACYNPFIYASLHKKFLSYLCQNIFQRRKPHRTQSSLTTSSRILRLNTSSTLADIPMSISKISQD
Briefly: cell-based. Further details: species or system grass carp (Ctenopharyngodon idellus).

Where [11] appears, read: sheet prrp1, block r21-32, PrRP1 1 μM, U73122 10 μM, 2-APB 100 μM, KN62 5 μM, nifedipine 10 μM, calmidazolium 1 μM, 24 h, mean.
Where [12] appears, read: sheet prrp2, block r25-30, PrRP2 1 μM, CMZ 1 μM, KN62 5 μM, 24 h, mean.
The mark [13] stands for this setting: sheet prrp1, block Nifedipine, CMZ, KN62 (r33-40), PrRP1 1 μM, nifedipine 10 μM, calmidazolium 1 μM, KN62 5 μM, 24 h, mean.
[14] abbreviates: sheet prrp1, block r21-30, PrRP1 1 μM, U73122 10 μM, 2-APB 100 μM, KN62 5 μM, nifedipine 10 μM, 24 h, mean.
The mark [15] stands for this setting: sheet prrp2, block r27-32, PrRP2 1 μM, CMZ 1 μM, KN62 5 μM, 24 h, mean.
Where [16] appears, read: PrRP1 or PrRP2 1 μM, MDL12330A 20 μM, H89 20 μM, U73122 10 μM, GF109203X 20 μM, 2-APB 100 μM, nifedipine 10 μM, calmidazolium 1 μM, KN62 5 μM.
The mark [17] stands for this setting: HEK-293T, NFAT-luc reporter, 24 h, 37°C, GraphPad Prism 7, read-out: EC50, hPrRPR.
Setting [18] is: sheet prrp1, block PKC (r14-19), PrRP1 1 μM, U73122 10 μM, GF109203X 20 μM, 24 h, mean.
The mark [19] stands for this setting: sheet prrp2, block r10-15, PrRP2 1 μM, U73122 10 μM, GF109203X 20 μM, 24 h, mean.
[20] abbreviates: sheet prrp1, block PKA, PrRP1 1 μM, MDL12330A 20 μM, H89 20 μM, 24 h, mean.
The mark [21] stands for this setting: sheet prrp2, block r2-8, PrRP2 1 μM, MDL12330A 20 μM, H89 20 μM, 24 h, mean.

Like-named read-outs stand apart in the source and are kept apart here. Ends that are not written are not given here.

Turning to `C[C@]12CC[C@@H]3c4ccc(O)cc4CC[C@H]3[C@@H]1CC[C@@H]2O` [E2, seventeen β-estradiol], the “four PrRP-Rs mRNA expression (in words)” value in [1] was “significantly induced”. Also, in [1] (mean), the “prrp1a mRNA expression (CTR = 1)” value is on record as 2.26, the “prrp1b mRNA expression (CTR = 1)” value worked out at 2.14, the “prrp2a mRNA expression (CTR = 1)” value turned out to be 1.37 and the “prrp2b mRNA expression (CTR = 1)” value amounted to 2.25. Moreover, the “expression of key genes involved in reproduction (GnRH3, Kiss2, and Tac3) (in words)” value in [2] is on record as “enhanced the expression of the key genes involved in reproduction”. Further, in [3], the “GnRH3 mRNA expression (in words)” value is “significantly induce” and the “PrRP1 mRNA expression (in words)” value was “significantly induce”. In addition, in assay [3] (mean), the “gnrh3 mRNA expression (CTR = 1)” value was 2.33 and the “prrp1 mRNA expression (CTR = 1)” value came to 1.32.

Regarding `CN([C@@H](Cc1ccc(OS(=O)(=O)c2cccc3cnccc23)cc1)C(=O)N1CCN(c2ccccc2)CC1)S(=O)(=O)c1cccc2cnccc12` [KN62], the “GtHα mRNA expression” value in assay [4] (setting [11]) and in assay [4] (setting [12]) was 119.519 % Ctrl each time. The “LHβ mRNA expression” value in assay [5] (setting [13]), in assay [5] (setting [14]) and in [5] (setting [15]) was 112.35 % Ctrl throughout. The “effect on PrRPs-induced LH secretion and mRNA expression (in words)” value (shortened to “effect”) in [6] (setting [16]) was “could also block PrRPs-induced LH secretion and mRNA expression”.

With `Clc1ccc(C(c2ccc(Cl)cc2)n2cc[n+](CC(OCc3ccc(Cl)cc3Cl)c3ccc(Cl)cc3Cl)c2)cc1` (centres unmarked) [calmidazolium], the “GtHα mRNA expression” value amounted to 36.6785 % Ctrl in assay [4] (setting [11]) and 48.844 % Ctrl in assay [4] (setting [12]). Besides, the “LHβ mRNA expression” value in [5] (setting [13]) and in assay [5] (setting [15]) was 13.098 % Ctrl throughout. Besides, the “effect” value in assay [6] (setting [16]) is “could also block PrRPs-induced LH secretion and mRNA expression”.

With `CN(C)CCCn1cc(C2=C(c3c[nH]c4ccccc34)C(=O)NC2=O)c2ccccc21` [GF109203X], the “GtHα mRNA expression” value in [4] stood at 66.101 % Ctrl. Also, the “LHβ mRNA expression” value in assay [5] came to 101.639 % Ctrl. Besides, in assay [6], the “effect” value is “could also block PrRPs-induced LH secretion and mRNA expression”.

As to `NCCOB(c1ccccc1)c1ccccc1` [2-APB], the “GtHα mRNA expression” value in [4] is recorded as 30.7224 % Ctrl. Besides, the “LHβ mRNA expression” value in [5] was found to be 7.49 % Ctrl. Besides, the “effect” value in assay [6] was “could also block PrRPs-induced LH secretion and mRNA expression”.

Turning to TPDINPAWYASRGIRPVGRF-NH2 [hPrRP], the EC50 in assay [7] (setting [17]) turned out to be 191 nM; in [8] it was 940 nM; in assay [9] it was 2180 nM; in assay [10], 1110 nM.

DPNIDAVWYKGRGIRPVGRF-NH2 [PrRP2]: the EC50 in [7] (setting [17]) was 52.4 nM; in [8], 78.9 nM; in [9], 615 nM; in assay [10], 3160 nM.

Take `COc1ccc2c(c1)CC[C@@H]1[C@@H]2CC[C@]2(C)[C@@H](NCCCCCCN3C(=O)C=CC3=O)CC[C@@H]12` [U73122]: the “GtHα mRNA expression” value in [4] (setting [18]), in assay [4] (setting [11]) and in assay [4] (setting [19]) was 19.2973 % Ctrl throughout. Besides, the “LHβ mRNA expression” value in [5] (setting [18]), in assay [5] (setting [14]) and in [5] (setting [19]) was 16.4413 % Ctrl throughout. The “effect” value in [6] (setting [16]) was “could also block PrRPs-induced LH secretion and mRNA expression”.

For `Cl.c1ccc(C2CCCC2NC2=NCCCCCCCCCCC2)cc1` (centres unmarked) [MDL12330A], the “GtHα mRNA expression” value in assay [4] (setting [20]) and in assay [4] (setting [21]) was 33.647 % Ctrl throughout. Moreover, the “LHβ mRNA expression” value in assay [5] (setting [20]) amounted to 19.5731 % Ctrl; in assay [5] (setting [21]), 52.4857 % Ctrl. Besides, the “effect” value in assay [6] (setting [16]) is “could be blocked by co-treatment”.

For `COC(=O)C1=C(C)NC(C)=C(C(=O)OC)C1c1ccccc1[N+](=O)[O-]` [nifedipine], the “GtHα mRNA expression” value in assay [4] (setting [11]) is on record as 77.477 % Ctrl; in [4] (sheet prrp2, block r17-22, PrRP2 1 μM, 2-APB 100 μM, nifedipine 10 μM, 24 h, mean), 72.5728 % Ctrl. Also, the “LHβ mRNA expression” value in assay [5] (setting [13]) is 48.7223 % Ctrl; in assay [5] (setting [14]) it was 48.7223 % Ctrl; in assay [5] (sheet prrp2, block r18-23, PrRP2 1 μM, 2-APB 100 μM, nifedipine 10 μM, 24 h, mean), 48.7223 % Ctrl. The “effect” value in [6] (setting [16]) was “could also block PrRPs-induced LH secretion and mRNA expression”.

`O=S(=O)(NCCNC/C=C/c1ccc(Br)cc1)c1cccc2cnccc12` [H89]: the “GtHα mRNA expression” value in assay [4] (setting [20]) and in assay [4] (setting [21]) was 38.3512 % Ctrl in each case. Moreover, the figures for the “LHβ mRNA expression” value in [5] (setting [20]) and in assay [5] (setting [21]) were 92.1677 % Ctrl and 65.1638 % Ctrl, respectively. In [6] (setting [16]), the “effect” value is reported as “could be blocked by co-treatment”.

Turning to SPEIDPFWYVGRGVRPIGRF-NH2 [PrRP1], the EC50 in assay [7] was 182 nM; in assay [8] it was 720 nM; in [9] it was 192 nM; in assay [10], 85.3 nM.

In general, EC50 refers to the midpoint of the concentration-response curve.
